Experimental data taken from patent US8895317B2, “Reagent for measuring active nitrogen” (The University of Tokyo, priority 2008, dated 2014).

Key:
[1] = Fluorescence quantum yield; format: physicochemical; conditions: triazole compound at a physiological pH
From the text: (§1) Therefore, use of DCl-DA Cal enables observation of intracellular reactive nitrogen species over such a long period of time that cannot be achieved by conventional fluorescent probes for measuring reactive nitrogen.

[2] = Stability under physiological conditions; format: physicochemical
From the text: as §1

O=C(O)CN(CC(=O)O)Cc1c2oc3c(CN(CC(=O)O)CC(=O)O)c(O)c(Cl)cc3c(-c3ccc4[nH]nnc4c3C(=O)O)c-2cc(Cl)c1=O [triazole compound]
fluorescence quantum yield Φf [1]: 0.63
stability under physiological conditions [2]: stable under physiological conditions
